# Test system: M. catarrhalis A894
# Test: MIC determination by microdilution in cation-adjusted Mueller-Hinton Broth (NCCLS)
# Type: cell-based
# Conditions: Moraxella catarrhalis, A894, microdilution method, pH of the test medium 7.2-7.3
# Description: These assays have been performed following the description given in “Methods for dilution Antimicrobial Susceptibility Tests for Bacteria that Grow Aerobically, 4th ed.; Approved standard: NCCLS Document M7-A4; National Committee for Clinical Laboratory Standards: Villanova, Pa., USA, 1997”. Minimal inhibitory concentrations (MICs; mg/l) were determined in cation-adjusted Mueller-Hinton Broth by a microdilution method following NCCLS guidelines (National Committee for Clinical Laboratory Standards. Methods for Dilution Antimicrobial Susceptibility). The pH of the test medium was 7.2-7.3. All Example compounds were tested against several Gram positive and Gram negative bacteria such as S. aureus, E. faecalis, S. pneumoniae, M. catarrhalis or E.coli.
row,SMILES,MIC
1,"COc1ccc2ncc3c(c2n1)C(CN1CCC(NCc2ccc4c(n2)NC(=O)CO4)CC1)CO3 (racemic) [Example 6, rac-6-{[1-(8-methoxy-1,2-dihydro-3-oxa-5,9-diaza-cyclopenta[a]naphthalen-1-ylmethyl)-piperidin-4-ylamino]-methyl}-4H-pyrido[3,2-b][1,4]oxazin-3-one]",≤ 0.031 µg/mL
2,"COc1ccc2ncc3c(c2n1)C(CN1CC[C@@H](NCc2ccc4c(n2)NC(=O)CS4)[C@@H](F)C1)CO3 (relative stereo) [Example 17, 6-{[(3S*,4R*)-3-fluoro-1-((1RS)-8-methoxy-1,2-dihydro-3-oxa-5,9-diaza-cyclopenta[a]naphthalen-1-ylmethyl)-piperidin-4-ylamino]-methyl}-4H-pyrido[3,2-b][1,4]thiazin-3-one]",≤ 0.031 µg/mL
3,"COc1ccc2ncc3c(c2n1)C(CN1CC[C@H](NCc2ccc4c(n2)NC(=O)CO4)[C@H](CO)C1)CO3 (relative stereo) [Example 37, 6-{(3R*,4S*)-[3-hydroxymethyl-1-((1RS)-8-methoxy-1,2-dihydro-3-oxa-5,9-diaza-cyclopenta[a]naphthalen-1-ylmethyl)-piperidin-4-ylamino]-methyl}-4H-pyrido[3,2-b][1,4]oxazin-3-one]",≤ 0.031 µg/mL
4,"COc1ccc2ccc3c(c2n1)C(CN1CCC(NCc2ccc4c(c2)NC(=O)CO4)CC1)CO3 (racemic) [Example 15, rac-6-{[1-(2-methoxy-8,9-dihydro-furo[2,3-h]quinolin-9-ylmethyl) -piperidin-4-ylamino]-methyl}-4H-benzo[1,4]oxazin-3-one]",≤ 0.031 µg/mL
5,"COc1ccc2ncc3c(c2n1)C(CN1CC[C@H](NCc2cc4c(nn2)OCCO4)[C@H](CO)C1)CO3 (relative stereo) [Example 38, (3R*,4S*)-[4-[(6,7-dihydro-[1,4]dioxino[2,3-c]pyridazin-3-ylmethyl)-amino]-1-((1RS)-8-methoxy-1,2-dihydro-3-oxa-5,9-diaza-cyclopenta[a]naphthalen-1-ylmethyl)-piperidin-3-yl]-methanol]",0.063 µg/mL
6,"COc1ccc2ccc3c(c2n1)C(CN1CCC(NCc2cc4c(cn2)OCCO4)CC1)CO3 (racemic) [Example 2, rac-(2,3-dihydro-[1,4]dioxino[2,3-c]pyridin-7-ylmethyl)-[1-(2-methoxy-8,9-dihydro-furo[2,3-h]quinolin-9-ylmethyl)-piperidin-4-yl]-amine]",≤ 0.031 µg/mL
7,"COc1ccc2ccc3c(c2n1)C(CN1CCC(NCc2ccc4c(n2)NC(=O)CS4)CC1)CO3 (racemic) [Example 4, rac-6-{[1-(2-methoxy-8,9-dihydro-furo[2,3-h]quinolin-9-ylmethyl) -piperidin-4-ylamino]-methyl}-4H-pyrido[3,2-b][1,4]thiazin-3-one]",≤ 0.031 µg/mL
8,"COc1ccc2ncc3c(c2n1)C(CN1CCC(NCc2ccc4c(c2)OCCO4)CC1)CO3 (racemic) [Example 10, rac-(2,3-dihydro-benzo[1,4]dioxin-6-ylmethyl)-[1-(8-methoxy-1,2-dihydro-3-oxa-5,9-diaza-cyclopenta[a]naphthalen-1-ylmethyl)-piperidin-4-yl]-amine]",≤ 0.031 µg/mL
9,"COc1ccc2ccc3c(c2n1)C(CN1CCC(NC/C=C/c2cc(F)ccc2F)CC1)CO3 (racemic) [Example 1, rac-[(E)-3-(2,5-difluoro-phenyl)-allyl]-[1-(2-methoxy-8,9-dihydro-furo[2,3-h]quinolin-9-ylmethyl)-piperidin-4-yl]-amine]",≤ 0.031 µg/mL
10,"COc1ccc2ncc3c(c2n1)C(CN1CC[C@@H](CNCc2cc4c(cn2)OCCO4)C1)CO3 (mixture of isomers) [Example 12, (2,3-dihydro-[1,4]dioxino[2,3-c]pyridin-7-ylmethyl) -[(3S)-1-((1RS)-8-methoxy-1,2-dihydro-3-oxa-5,9-diaza-cyclopenta[a]naphthalen-1-ylmethyl)-pyrrolidin-3-ylmethyl]-amine]",≤ 0.031 µg/mL
11,"COc1ccc2ccc3c(c2n1)C(CN1CCC(NCc2ccc4c(n2)NC(=O)CO4)CC1)CO3 (racemic) [Example 5, rac-6-{[1-(2-methoxy-8,9-dihydro-furo[2,3-h]quinolin-9-ylmethyl) -piperidin-4-ylamino]-methyl}-4H-pyrido[3,2-b][1,4]oxazin-3-one]",≤ 0.031 µg/mL
12,"COc1ccc2ncc3c(c2n1)C(CN1CCC(NCc2cc4c(nn2)OCCO4)CC1)CO3 (racemic) [Example 8, rac-(6,7-dihydro-[1,4]dioxino[2,3-c]pyridazin-3-ylmethyl)-[1-(8-methoxy-1,2-dihydro-3-oxa-5,9-diaza-cyclopenta[a]naphthalen-1-ylmethyl) -piperidin-4-yl]-amine]",≤ 0.031 µg/mL
13,"COc1ccc2ncc3c(c2n1)C(CN1CCC[C@@H](CNCc2ccc4c(n2)NC(=O)CS4)C1)CO3 (mixture of isomers) [Example 28, 6-({[(3S)-1-((1RS)-8-methoxy-1,2-dihydro-3-oxa-5,9-diaza-cyclopenta[a]naphthalen-1-ylmethyl)-piperidin-3-ylmethyl]-amino}-methyl)-4H-pyrido[3,2-b][1,4]thiazin-3-one]",≤ 0.031 µg/mL
14,"COc1ccc2ncc3c(c2n1)[C@H](CN1CCC(NCc2ccc4c(n2)NC(=O)CS4)CC1)CO3 (single isomer, unassigned) [Example 16A]",≤ 0.031 µg/mL
15,"COc1ccc2ncc3c(c2n1)C(CN1CC[C@@H](NCc2ccc4c(n2)NC(=O)CO4)[C@@H](F)C1)CO3 (relative stereo) [Example 18, 6-{[(3S*,4R*)-3-fluoro-1-((1RS)-8-methoxy-1,2-dihydro-3-oxa-5,9-diaza-cyclopenta[a]naphthalen-1-ylmethyl)-piperidin-4-ylamino]-methyl}-4H-pyrido[3,2-b][1,4]oxazin-3-one]",≤ 0.031 µg/mL
16,"O=C1COc2ccc(CNC3CCN(CC4COc5cnc6ccc(F)cc6c54)CC3)nc2N1 (racemic) [Example 35, rac-6-{[1-(8-fluoro-1,2-dihydro-furo[2,3-c]quinolin-1-ylmethyl)-piperidin-4-ylamino]-methyl}-4H-pyrido[3,2-b][1,4]oxazin-3-one]",≤ 0.031 µg/mL
17,"COc1ccc2ccc3c(c2n1)C(CN1CCC(NCc2cc4c(nn2)OCCO4)CC1)CO3 (racemic) [Example 3, rac-(6,7-dihydro-[1,4]dioxino[2,3-c]pyridazin-3-ylmethyl)-[1-(2-methoxy-8,9-dihydro-furo[2,3-h]quinolin-9-ylmethyl)-piperidin-4-yl]-amine]",≤ 0.031 µg/mL
18,"COc1ccc2ncc3c(c2n1)C(CN1CCO[C@@H](CNCc2cc4c(cn2)OCCO4)C1)CO3 (mixture of isomers) [Example 26, (2,3-dihydro-[1,4]dioxino[2,3-c]pyridin-7-ylmethyl) -[(2S)-4-((1RS)-8-methoxy-1,2-dihydro-3-oxa-5,9-diaza-cyclopenta[a]naphthalen-1-ylmethyl)-morpholin-2-ylmethyl]-amine]",≤ 0.031 µg/mL

# Same assay, conditions: microdilution method, pH of the test medium 7.2-7.3
row,SMILES,MIC M. catarrhalis A894
1,COc1ccc2ncc3c(c2n1)C(CN1CCC[C@@H](CNCc2ccc4c(n2)NC(=O)CO4)C1)CO3 (mixture of isomers) [Example 27],≦0.031 mg/l
2,COc1ccc2ncc3c(c2n1)C(CN1CCC[C@@H](CNC/C=C/c2cc(F)ccc2F)C1)CO3 (mixture of isomers) [Example 30],≦0.031 mg/l
3,"COc1ccc2ncc3c(c2n1)C(CN1CC2C(C1)C2NCc1ccc2c(n1)NC(=O)CO2)CO3 (racemic) [Example 32, 6-{[(1α,5α,6α)-3-((1RS)-8-methoxy-1,2-dihydro-3-oxa-5,9-diaza-cyclopenta[a]naphthalen-1-ylmethyl)-3-aza-bicyclo[3.1.0]hex-6-ylamino]-methyl}-4H-pyrido[3,2-b][1,4]oxazin-3-one]",≦0.031 mg/l
4,"COc1ccc2ncc3c(c2n1)C(CN1C2CCC1CC(NC/C=C/c1cc(F)ccc1F)C2)CO3 (racemic) [Example 21, [(E)-3-(2,5-difluoro-phenyl)-allyl]-[(3-exo)-8-((1RS)-8-methoxy-1,2-dihydro-3-oxa-5,9-diaza-cyclopenta[a]naphthalen-1-ylmethyl)-8-aza-bicyclo[3.2.1]oct-3-yl]-amine]",≦0.031 mg/l
5,"COc1ccc2ncc3c(c2n1)C(CN1CC2C(C1)C2NCc1cc2c(cn1)OCCO2)CO3 (racemic) [Example 33, (2,3-dihydro-[1,4]dioxino[2,3-c]pyridin-7-ylmethyl)-[(1α,5α,6α)-3-((1RS)-8-methoxy-1,2-dihydro-3-oxa-5,9-diaza-cyclopenta[a]naphthalen-1-ylmethyl)-3-aza-bicyclo[3.1.0]hex-6-yl]amine]",≦0.031 mg/l
6,"COc1ccc2ncc3c(c2n1)C(CN1CCO[C@@H](CNCc2ccc4c(n2)NC(=O)CO4)C1)CO3 (mixture of isomers) [Example 24, 6-({[(2S)-4-((1RS)-8-methoxy-1,2-dihydro-3-oxa-5,9-diaz-cyclopenta[a]naphthalen-1-ylmethyl)-morpholin-2-ylmethyl]-amino}-methyl) -4H-pyrido[3,2-b][1,4]oxazin-3-one]",≦0.031 mg/l
7,"COc1ccc2ncc3c(c2n1)C(CN1[C@@H]2CC[C@H]1C[C@H](NCc1ccc4c(n1)NC(=O)CS4)C2)CO3 (mixture of isomers) [Example 23, 6-{[(3-exo)-8-((1RS)-8-methoxy-1,2-dihydro-3-oxa-5,9-diaza-cyclopenta[a]naphthalen-1-ylmethyl)-8-aza-bicyclo[3.2.1]oct-3-ylamino]-methyl}-4H-pyrido[3,2-b][1,4]thiazin-3-one]",≦0.031 mg/l
8,COc1ccc2ncc3c(c2n1)C(CN1CCC[C@@H](CNCc2cc4c(cn2)OCCO4)C1)CO3 (mixture of isomers) [Example 29],≦0.031 mg/l
9,"COc1ccc2ncc3c(c2n1)C(CN1CC2C(C1)C2NCc1ccc2c(n1)NC(=O)CS2)CO3 (racemic) [Example 34, 6-{[(1α,5α,6α)-3-((1RS)-8-methoxy-1,2-dihydro-3-oxa-5,9-diaza-cyclopenta[a]naphthalen-1-ylmethyl)-3-aza-bicyclo[3.1.0]hex-6-ylamino]-methyl}-4H-pyrido[3,2-b][1,4]thiazin-3-one]",≦0.031 mg/l
